For 14 molecules, IC50 results are on record in US8563559B2 (Rigel Pharmaceuticals, Inc., priority 2006, dated 2013).

The first assay deals with T1, Axl (Homo sapiens, UniProt P30530).
T1 construct: endogenous in cells; host or cells: HeLa
T1 sequence (P30530 26-894): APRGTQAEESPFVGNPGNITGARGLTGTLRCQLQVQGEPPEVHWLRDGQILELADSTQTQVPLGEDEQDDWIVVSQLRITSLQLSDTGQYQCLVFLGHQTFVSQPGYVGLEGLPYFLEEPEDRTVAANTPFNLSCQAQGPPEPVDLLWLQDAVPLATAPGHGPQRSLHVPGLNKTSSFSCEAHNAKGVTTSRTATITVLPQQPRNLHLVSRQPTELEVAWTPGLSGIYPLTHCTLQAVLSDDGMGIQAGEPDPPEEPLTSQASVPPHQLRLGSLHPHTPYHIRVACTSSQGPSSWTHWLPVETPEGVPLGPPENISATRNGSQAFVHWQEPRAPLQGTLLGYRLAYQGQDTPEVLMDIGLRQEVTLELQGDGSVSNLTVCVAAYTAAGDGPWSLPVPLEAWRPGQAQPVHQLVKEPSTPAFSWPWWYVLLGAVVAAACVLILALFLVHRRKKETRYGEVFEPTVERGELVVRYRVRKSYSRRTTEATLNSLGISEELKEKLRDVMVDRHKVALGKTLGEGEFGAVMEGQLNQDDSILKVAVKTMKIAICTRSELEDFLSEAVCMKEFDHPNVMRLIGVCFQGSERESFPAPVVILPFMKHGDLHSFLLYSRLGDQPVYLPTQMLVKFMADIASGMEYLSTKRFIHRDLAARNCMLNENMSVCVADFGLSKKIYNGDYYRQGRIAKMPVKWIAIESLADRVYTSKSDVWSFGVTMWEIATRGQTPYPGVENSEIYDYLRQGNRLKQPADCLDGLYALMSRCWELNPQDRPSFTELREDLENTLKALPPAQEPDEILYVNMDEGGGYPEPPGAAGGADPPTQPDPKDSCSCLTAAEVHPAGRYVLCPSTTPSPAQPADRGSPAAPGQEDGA
Nature of the assay: Phospho-AKT in-cell Western assay (inhibition of Axl activity). The note with it: Table 1, formula (Ia); Hela cells, Axl antibody cross-linking stimulation, phospho-Akt chemiluminescence normalized to relative cell number. It is filed as cell-based. How it is done: The compounds of the invention were tested in the following assay for their ability to inhibit Axl activity.
Phospho-AKT in-Cell Western Assay
• Cell culture plate: 96 well assay plate (Corning 3610), white, clear bottom, tissue-culture treated. • Cells: Hela cells. • Starvation medium: For Axl stimulation: 0.5% FCS (fetal calf serum) in DMEM, plus Axl/Fc (extracellular domain of AXL fused to immunoglobulin Fc region) (R&D, 154-AL) 500 ng/mL. • For EGF (epidermal growth factor) stimulation: 0.5% FCS in DMEM (Dulbecco's modified Eagles medium). • Poly-L-Lysine 0.01% solution (the working solution): 10 μg/ml, dilute In PBS (phosphate buffered saline). • Axl antibody cross-linking: • 1st: Mouse anti-Axl (R&D, MAB154). • 2nd: Biotin-SP-conjugated AffiniPure goat anti-mouse IgG (H+L) (Jackson ImmunoResearch #115-065-003). • Fixing buffer: 4% formaldehyde in PBS. • Wash buffer: 0.1% TritonX-100 in PBS. • Quenching buffer: 3% H2O2, 0.1% Azide in wash buffer, Azide and hydrogen peroxide 1(H2O2) are added fresh. • Blocking buffer: 5% BSA in TBST (tris buffered saline plus 0.1% Tween 20). • Primary antibody: Rabbit anti-human Phospho-Akt antibody (Cell Signaling 9271): 1×250 diluted in blocking buffer. • Secondary antibody: HRP (horse radish peroxidase)-conjugated Goat anti-Rabbit secondary, stock solution: Jackson ImmunoResearch (Goat anti-Rabbit HRP, #111-035-144) 1:1 diluted in glycerol, store at −20° C. The working solution: 1×2000 dilution of stock in blocking buffer. • Chemiluminescent working solution (Pierce, 37030): SuperSignal ELISA (enzyme linked immunosorbant assay) Pico Chemiluminescent substrate. • Crystal Violet solution: Stock: 2.5% Crystal violet in methanol, filtered and kept at ambient temperature. The working solution: dilute the stock 1:20 with PBS immediately before use. • 10% SDS: working solution: 5% SDS (sodium dodecylsulfate), diluted in PBS Methods: Day 1:
A 96 well TC (tissue culture treated) plate was coated with 10 μg/mL poly-L-Lysine at 37° C. for 30 min, washed twice with PBS, and air-dried for 5 minutes before cells were added. Hela cells were seeded at 10,000 cells/well and the cells were starved in 100 μL starvation medium containing Axl/Fc for 24 hrs.
The cells were pre-treated with test compounds by adding 100 μL of 2× test compound to the starvation medium on the cells. The cells were incubated at 37° C. for 1 hr before stimulation.
The cells were stimulated by Axl-antibody cross-linking as follows: A 5×1st/2nd Axl antibody mixture was made (37.5 μg/mL 1st/100 μg/mL 2nd) in starvation medium and nutated at 4° C. with thorough mixing for 1-2 hours for clustering. The resulting mix was warmed to 37° C. 50 μL of 5×Axl 1st/2nd of antibody cluster was added to the cells and the cells were incubated at 37° C. for 5 min.
After 5 minutes stimulation, the plate was flicked to remove medium and the plate was tapped onto paper towels. Formaldehyde (4.0% in PBS, 100 μL) was added to fix the cells and the cells were incubated at ambient temperature for 20 min without shaking.
The cells were washed with a plate washer buffer to remove the formaldehyde solution. The plate was flicked to removed excess wash buffer and tapped onto paper towels. Quenching buffer (100 μL) was added to each well and the cells were incubated at ambient temperature for 20 minutes without shaking.
The cells were washed with a plate washer buffer to remove the quenching buffer. Blocking buffer (100 μL) was added and the cells were incubated at ambient temperature for at least an hour with gentle shaking.
The cells were washed with a plate washer buffer and diluted primary antibody (50 μL) was added to each well (blocking buffer was added to the negative control wells instead). The plates were incubated overnight at 4° C. with gentle shaking.
The wash buffer was removed, diluted secondary antibody (100 μL) was added, and the cells were incubated at ambient temperature for 1 hour with gentle shaking. […]
One may read the IC50 as the midpoint of a concentration-inhibition curve. Low values mean greater potency in that assay, high ones weaker potency in that assay. The molecule `CNC(=O)[C@H]1C[C@H]2C[C@H](C2(C)C)[C@@]1(C)Nc1nc(Nc2ccc(N3CCN(C)CC3)c(F)c2)ncc1Cl` [Compound 4, (1R,2R,3S,5R)-2-(5-chloro-2-(3-fluoro-4-(4-methylpiperazin-1-yl)phenylamino)pyrimidin-4-ylamino)-N,2,6,6-tetramethylbicyclo[3.1.1]heptane-3-carboxamide] came in with a half-inhibitory concentration (IC50) of under 1000 nM.
`CNC(=O)[C@H]1C[C@H]2C[C@H](C2(C)C)[C@@]1(C)Nc1nc(Nc2ccc(N3CCOCC3)cc2)ncc1Cl` [Compound 2, (1R,2R,3S,5R)-2-(5-chloro-2-(4-morpholinophenylamino)pyrimidin-4-ylamino)-N,2,6,6-tetramethylbicyclo[3.1.1]heptane-3-carboxamide] gave an IC50 of 1000 to 10000 nM.
`CNC(=O)[C@H]1C[C@H]2C[C@H](C2(C)C)[C@@]1(C)Nc1nc(Nc2ccc(N3CCC(F)(F)CC3)c(F)c2)ncc1C` [Compound 44, (1R,2R,3S,5R)-2-(5-methyl-2-(3-fluoro-4-(4,4-difluoropiperidin-1-yl)phenylamino)pyrimidin-4-ylamino)-N,2,6,6-tetramethylbicyclo[3.1.1]heptane-3-carboxamide] gave an IC50 of 1000 to 10000 nM.
In the case of `CNC(=O)[C@H]1C[C@H]2C[C@H](C2(C)C)[C@@]1(C)Nc1nc(Nc2ccc(N3CCN(S(C)(=O)=O)CC3)c(C(F)(F)F)c2)ncc1F` [Compound 37, (1R,2R,3S,5R)-2-(5-fluoro-2-(3-trifluoromethyl-4-(4-methylsulfonylpiperazin-1-yl)phenylamino)pyrimidin-4-ylamino)-N,2,6,6-tetramethylbicyclo[3.1.1]heptane-3-carboxamide], the IC50 was over 20000 nM.
In turn, `CC1(C)[C@H]2C[C@H](C(=O)NC3CC3)[C@](C)(Nc3nc(Nc4ccc(OCCN5CCCC5)cc4)ncc3Cl)[C@@H]1C2` [Compound 61, (1R,2R,3S,5R)-2-(5-chloro-2-(4-(2-(pyrrolidin-1-yl)ethoxy)phenylamino)pyrimidin-4-ylamino)-N-cyclopropyl-2,6,6-trimethylbicyclo[3.1.1]heptane-3-carboxamide] registered an IC50 of under 1000 nM.
`CNC(=O)[C@H]1C[C@H]2C[C@H](C2(C)C)[C@@]1(C)Nc1nc(Nc2ccc(N3CCC(F)(F)CC3)c(Cl)c2)ncc1F` [Compound 34, (1R,2R,3S,5R)-2-(5-fluoro-2-(3-chloro-4-(4,4-difluoropipendin-1-yl)phenylamino)pyrimidin-4-ylamino)-N,2,6,6-tetramethylbicyclo[3.1.1]heptane-3-carboxamide] returned an IC50 of over 20000 nM.
Turning to `CNC(=O)[C@H]1C[C@H]2C[C@H](C2(C)C)[C@@]1(C)Nc1nc(Nc2ccc(OCCN3CCCC3)c(F)c2)ncc1Cl` [Compound 3, (1R,2R,3S,5R)-2-(5-chloro-2-(3-fluoro-4-(2-(pyrrolidin-1-yl)ethoxy)phenylamino)pyrimidin-4-ylamino)-N,2,6,6-tetramethylbicyclo[3.1.1]heptane-3-carboxamide], the IC50 is under 1000 nM.
For `CNC(=O)[C@H]1C[C@H]2C[C@H](C2(C)C)[C@@]1(C)Nc1nc(Nc2ccc(OCCNC3CCCC3)cc2)ncc1Cl` [Compound 9, (1R,2R,3S,5R)-2-(5-chloro-2-(4-(2-(cyclopentylamino)ethoxy)phenylamino)pyrimidin-4-ylamino)-N,2,6,6-tetramethylbicyclo[3.1.1]heptane-3-carboxamide], the IC50 is under 1000 nM.

The assay is the same for the next values; noted with them: Table 2, formula (Ib); Hela cells, Axl antibody cross-linking stimulation, phospho-Akt chemiluminescence normalized to relative cell number.
`CNC(=O)[C@@H]1C[C@@H]2C[C@@H](C2(C)C)[C@]1(C)Nc1nc(Nc2ccc(N3CCOCC3)cc2)ncc1Cl` [Compound 21, (1S,2S,3R,5S)-2-(5-chloro-2-(4-morpholinophenylamino)pyrimidin-4-ylamino)-N,2,6,6-tetramethylbicyclo[3.1.1]heptane-3-carboxamide] displayed an IC50 of 1000 to 10000 nM.
On to `CNC(=O)[C@@H]1C[C@@H]2C[C@@H](C2(C)C)[C@]1(C)Nc1nc(Nc2ccc(OCCN3CCCC3)cc2)ncc1Cl` [Compound 22, (1S,2S,3R,5S)-2-(5-chloro-2-(4-(2-(pyrrolidin-1-yl)ethoxy)phenylamino)pyrimidin-4-ylamino)-N,2,6,6-tetramethylbicyclo[3.1.1]heptane-3-carboxamide], for which the IC50 was over 20000 nM.

The same assay, now with this note: Table 3, formula (Ic); Hela cells, Axl antibody cross-linking stimulation, phospho-Akt chemiluminescence normalized to relative cell number.
Regarding `CNC(=O)[C@H]1C[C@H]2C[C@H](C2(C)C)[C@@]1(C)Nc1nc(Nc2ccc3c(c2)OCCN3CCN2CCOCC2)ncc1Cl` [Compound 58, (1R,2R,3S,5R)-2-(5-chloro-2-((3,4-dihydro-4-(2-(morpholin-4-yl)ethyl)-2H-benzo[b][1,4]oxazin-7-yl)amino)pyrimidin-4-ylamino)-N,2,6,6-tetramethylbicyclo[3.1.1]heptane-3-carboxamide], the IC50 was under 1000 nM.
Consider `CNC(=O)[C@H]1C[C@H]2C[C@H](C2(C)C)[C@@]1(C)Nc1nc(Nc2ccc3c(c2)OCCN3CCN2CCCCC2)ncc1F` [Compound 57, (1R,2R,3S,5R)-2-(5-fluoro-2-((3,4-dihydro-4-(2-(piperidin-1-yl)ethyl)-2H-benzo[b][1,4]oxazin-7-yl)amino)pyrimidin-4-ylamino)-N,2,6,6-tetramethylbicyclo[3.1.1]heptane-3-carboxamide], for which the IC50 was under 1000 nM.
`CCN(CC)CCN1CCOc2cc(Nc3ncc(Cl)c(N[C@@]4(C)[C@@H](C(=O)NC)C[C@H]5C[C@@H]4C5(C)C)n3)ccc21` [Compound 45, (1R,2R,3S,5R)-2-(5-chloro-2-((3,4-dihydro-4-(2-(diethylamino)ethyl)-2H-benzo[b][1,4]oxazin-7-yl)amino)pyrimidin-4-ylamino)-N,2,6,6-tetramethylbicyclo[3.1.1]heptane-3-carboxamide] yielded an IC50 of under 1000 nM.
As for `CNC(=O)[C@H]1C[C@H]2C[C@H](C2(C)C)[C@@]1(C)Nc1nc(Nc2ccc3c(c2)OCC(=O)N3)ncc1Cl` [Compound 28, (1R,2R,3S,5R)-2-(5-chloro-2-(3-oxo-3,4-dihydro-2H-benzo[b][1,4]oxazin-7-ylamino)pyrimidin-4-ylamino)-N,2,6,6-tetramethylbicyclo[3.1.1]heptane-3-carboxamide], the IC50 was over 20000 nM.
